Patent US20090036499A1, “FLY CONTROL METHOD” (priority 2007, published 2009)

Tested on: Adult L. serricata (blowflies)
Test: Test A: adult blowflies on blood agar containing test compound, scored by number of dead flies
Type: in vivo
Details: 4 flies in test
Procedure: • Adult L. serricata (blowflies): Adult flies are placed on beds of blood agar (in individual test wells; 4 flies per well) in which test compound, (3-bromo-N-[4-chloro-2-methyl-6-[(methylamino)carbonyl]phenyl]-1-(3-chloro-2-pyridinyl)-1H-pyrazole-5-carboxamide), was dissolved/suspended prior to hardening of agar. Flies can take up test compound by both ingestion and contact. Assays are scored by number of dead flies at 2 hours, 4 hours, and 24 hours.

For `CCOP(=S)(OCC)Oc1nc(Cl)c(Cl)cc1Cl` [Chloropyriphos, O,O-diethyl-O-3,5,6-trichloro-2-pyridyl-phosphorothioate], the “Number dead flies at 2 hours” value (1 ppm in blood agar) was 0, the “Number dead flies at 4 hours” value (1 ppm in blood agar) was 1 and the “Number dead flies at 24 hours” value (1 ppm in blood agar) was 4. The “Number dead flies at 2 hours” value (10 ppm in blood agar) was 1, the “Number dead flies at 4 hours” value (10 ppm in blood agar) was 4 and the “Number dead flies at 24 hours” value (10 ppm in blood agar) was 4. For the same compound, the “Number dead flies at 2 hours” value (25 ppm in blood agar) was 3, the “Number dead flies at 4 hours” value (25 ppm in blood agar) was 4 and the “Number dead flies at 24 hours” value (25 ppm in blood agar) was 4. The “Number dead flies at 2 hours” value (50 ppm in blood agar) was 4, the “Number dead flies at 4 hours” value (50 ppm in blood agar) was 4 and the “Number dead flies at 24 hours” value (50 ppm in blood agar) was 4. The “Number dead flies at 2 hours” value (100 ppm in blood agar) was 4, the “Number dead flies at 4 hours” value (100 ppm in blood agar) was 4 and the “Number dead flies at 24 hours” value (100 ppm in blood agar) was 4.
With `CNC(=O)c1cc(Cl)cc(C)c1NC(=O)c1cc(Br)nn1-c1ncccc1Cl` [Test Compound, 3-bromo-N-[4-chloro-2-methyl-6-[(methylamino)carbonyl]phenyl]-1-(3-chloro-2-pyridinyl)-1H-pyrazole-5-carboxamide] the “Number dead flies at 2 hours” value (1 ppm in blood agar) was 0, the “Number dead flies at 4 hours” value (1 ppm in blood agar) was 0 and the “Number dead flies at 24 hours” value (1 ppm in blood agar) was 0. For the same compound, the “Number dead flies at 2 hours” value (10 ppm in blood agar) was 0, the “Number dead flies at 4 hours” value (10 ppm in blood agar) was 0 and the “Number dead flies at 24 hours” value (10 ppm in blood agar) was 1. For the same compound, the “Number dead flies at 2 hours” value (25 ppm in blood agar) was 0, the “Number dead flies at 4 hours” value (25 ppm in blood agar) was 0 and the “Number dead flies at 24 hours” value (25 ppm in blood agar) was 2. For the same compound, the “Number dead flies at 2 hours” value (50 ppm in blood agar) was 0, the “Number dead flies at 4 hours” value (50 ppm in blood agar) was 0 and the “Number dead flies at 24 hours” value (50 ppm in blood agar) was 2. The “Number dead flies at 2 hours” value (100 ppm in blood agar) was 0, the “Number dead flies at 4 hours” value (100 ppm in blood agar) was 0 and the “Number dead flies at 24 hours” value (100 ppm in blood agar) was 3.
